{"source": "paper PMC9611471", "about": "(Pharmaceutics, 2022)", "key": {"A549 cells [1]": {"tested_on": "A549 cells", "experiment": "SK1 and SK2 protein (Western blotting) and mRNA (qRT-PCR) levels", "type": "cell-based, human", "details": "5 and 10 μM, 24 h", "description": "Western blotting measured changes in apoptosis-related proteins (PARP, BAX, BCL-2, Caspase-3). A549 cells (1 × 10^6 cells per well in 6-well plates) were incubated for 24 h. Cells were treated with concentrations of the compounds and incubated for 24 h. Then, cells were dissolved on ice for two hours with a lysis buffer containing a mixture of protease and phosphatase inhibitors. The lysate was centrifuged at 12,000× g for 15 min at 4 °C, and the supernatant was collected. Protein concentrations were measured using a bicinchoninic acid protein assay kit. Total protein was separated by 8–10% sodium dodecyl sulfate–polyacrylamide gel electrophoresis (SDS-PAGE) and transferred onto polyvinylidene fluoride (PVDF) membranes. After being blocked with 5% skim milk, membranes were probed overnight at 4 °C with primary antibodies against SK1, SK2, PARP, BAX, Bcl-2, Caspase-3, and β-actin. Then, the membranes were incubated with subsequent secondary antibodies at room temperature. Then, the protein expressions were measured by Amersham Imager 680 (GE Healthcare, Leiden, WZ, The Netherlands).\nRNAs were isolated using the Trizol/chloroform reagent (Invitrogen, Waltham, MA, USA). […] For quantitative analysis of various genes, qRT-PCR was performed using the Bio-Rad CFX384 Touch Real-time PCR detection system (Bio-Rad, Hercules, CA, USA) with SYBR Premix Ex Taq (Takara Bio, Shiga, Japan) for 40 cycles."}, "[2]": {"experiment": "In vitro metabolic stability, dog liver microsomes", "type": "in vitro ADME", "details": "pooled liver microsomes, NADPH, 37 °C, 0 and 30 min"}, "SK1": {"target": "SK1 (Homo sapiens, UniProt Q9NYA1)", "sequence (Q9NYA1 whole entry)": "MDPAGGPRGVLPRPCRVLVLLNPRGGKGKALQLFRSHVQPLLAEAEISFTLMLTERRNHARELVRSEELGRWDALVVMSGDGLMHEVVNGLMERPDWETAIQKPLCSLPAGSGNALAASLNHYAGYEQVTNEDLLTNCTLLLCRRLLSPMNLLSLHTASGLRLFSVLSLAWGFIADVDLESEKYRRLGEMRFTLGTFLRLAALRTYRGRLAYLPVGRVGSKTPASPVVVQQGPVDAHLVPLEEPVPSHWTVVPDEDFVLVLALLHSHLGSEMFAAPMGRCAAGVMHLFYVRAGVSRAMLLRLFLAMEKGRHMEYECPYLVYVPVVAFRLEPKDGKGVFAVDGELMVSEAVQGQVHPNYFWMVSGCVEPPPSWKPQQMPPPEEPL", "experiment": "SK1 activity assay (Adapta screening system)"}, "[3]": {"experiment": "In vitro metabolic stability, human liver microsomes", "details": "pooled liver microsomes 0.5 mg/mL, NADPH, 37 °C, 0 and 30 min"}, "[4]": {"experiment": "Serum analysis of tumor xenograft mice", "type": "in vivo", "details": "serum biochemical assays; 5 mg/kg i.p., 29 days", "description": "Five-week-old BALB/c-nu/nu male mice were purchased from Orient Bio Inc. (Seongnam, Gyeonggi-do, Korea). The mice were housed in a climate-controlled room (22 ± 2 °C, 50 ± 10% relative humidity) and specific pathogen-free conditions with a 12 h light/dark cycle and adapted for a week with free access to food and water. Cages, bedding, and drinking water were autoclaved and changed regularly. The cancer cell suspension {3 × 10^7 cells/ 150 μL phosphate-buffered saline (PBS)} was inoculated subcutaneously into the right flank. Measurable tumors were found 7–8 days after cell inoculation, and tumors grew in 90% of the injection site two weeks later. The mice were randomly divided into test groups (12 mice per group) when the tumor volume reached 100 mm^2 about two weeks after the inoculation (experimental day 0). The control group (vehicle-treated group) and Compound 4 (5 mg/kg) were administered i.p. 3 times a week. The formulation of Compound 4 was prepared in a mixture of 10% DMSO + 90% PBS. The tumor growth rate and body weights in each of the two groups were measured every three days using a Vernier caliper and a digital weighing balance, respectively. Tumor volume was calculated as l × b^2 × 0.52, where l is the length and b is the width. […]\nBlood samples were centrifuged at 3000× g for 20 min, and levels of ALT, AST, ALP, sphingosine, ceramide, and S1P were measured using a kit."}, "A549 cells [5]": {"tested_on": "A549 cells", "experiment": "Colony formation assay", "type": "cell-based, human", "details": "5 and 10 μM", "description": "A549 cells (1 × 10^3 cells/well) were seeded into six-well plates and then each compound was treated at 5 and 10 μM for 12 h. The medium was changed every two days, and the cells were cultured in a fresh medium for 10 days. The obtained colonies were fixed with 25% glutaraldehyde for 20 min and then stained with 0.1% crystal violet for 15 min."}, "A549 cells [6]": {"tested_on": "A549 cells", "experiment": "Mitochondrial membrane potential measurement (JC-10)", "type": "cell-based, human", "details": "10 μM, 24 h", "description": "To access the mechanism of cell death, Mitochondrial Membrane Potential (MMP) was performed using JC-10 cationic dye. […] Cells were collected, and 20 μM JC-10 dye prepared in HBSS solution (0.14 M NaCl, 0.005 M KCl, 0.001 M CaCl2, 0.005 M MgSO4-7H2O, 0.0004 M MgSO4-6H2O, 0.0003 M Na2HPO4-2H2O, 0.0004 M KH2PO4, 0.006 M D-glucose, 0.004 M NaHCO3, 0.002 M HEPES, and 0.02% Pluronic® F-127) was added to the cell for 30 min and mixed. The samples were protected from light and measured by using the MACS Quant Analyzer 10 Flow cytometer."}, "A549 cells [7]": {"tested_on": "A549 cells", "experiment": "Levels of sphingosine, ceramide and S1P (ELISA)", "type": "cell-based, human", "details": "5 and 10 μM", "description": "After seeding 1 × 10^6 cells/well into a 6-well plate and incubating for 24 h, the synthetic compounds were treated by concentration. Then, cells were collected and freezing and thawing were repeated three to five times, and centrifuged supernatant was used for testing. The levels of sphingosine, ceramide, and S1P were measured according to the proposed manual using each ELISA kit (Mybiosource, Inc., San Diego, CA, USA)."}, "[8]": {"experiment": "In vitro metabolic stability, mouse liver microsomes", "type": "in vitro ADME", "details": "pooled liver microsomes, NADPH, 37 °C, 0 and 30 min"}}, "note": "Entries after “also recorded” stand apart in the source; their conditions may differ.", "data": [{"compound": "Cc1cc(CN(Cc2cc(C)cc(CS(=O)(=O)c3ccccc3)c2)c2ccc(CCN3CCC(CO)CC3)cc2)cc(CS(=O)(=O)c2ccccc2)c1", "note": "[Compound 4, (1-(4-(Bis(3-methyl-5-((phenylsulfonyl)methyl)benzyl)amino)phenethyl)piperidin-4-yl)methanol]", "values": [{"measurement": "expression of proteins and mRNAs of SK1 and SK2", "setting": "A549 cells [1]", "value": "did not affect"}, {"measurement": "MS DLM", "setting": "[2]", "value": 26.1}, {"measurement": "selectivity for SK1", "setting": "SK1; SK1 vs SK2, compared to PF-543", "value": "lower selectivity for SK1 compared to PF-543"}, {"measurement": "inhibition at 10 µM", "setting": "SK1; read-out: SK1 inhibitory efficacy", "value": 31, "unit": "%"}, {"measurement": "MS HLM", "setting": "[3]", "value": 30.2}, {"measurement": "hepatotoxicity", "setting": "[4]", "value": "does not appear to cause hepatotoxicity"}, {"measurement": "colony formation", "setting": "A549 cells [5]", "value": "reduce colony formation in a concentration-dependent manner"}, {"measurement": "change in mitochondrial membrane potential (MMP), JC-10", "setting": "A549 cells [6]", "value": "significantly increased compared to that after treatment with PF-543"}, {"measurement": "S1P levels", "setting": "A549 cells [7]", "value": "reduced; also recorded: inhibited S1P at a level similar to that of PF-543"}, {"measurement": "ceramide levels", "setting": "A549 cells [7]", "value": "increased"}, {"measurement": "sphingosine levels", "setting": "A549 cells [7]", "value": "slightly lower sphingosine expression than PF-543"}, {"measurement": "MS MLM", "setting": "[8]", "value": 38.5}]}]}
